Data from US11272841B2, “Indicator fluids, systems, and methods for assessing movement of substances within, to or from a cerebrospinal fluid, brain or spinal cord compartment of a cranio-spinal cavity of a human” (BRAINWIDESOLUTIONS AS, priority 2017, dated 2022).

Experiment: T1 black-blood MRI: percentage change in normalized signal units in CSF and parasagittal dura after intrathecal gadobutrol, cohort of 18 individuals (FIG. 23g-w)
Type: in vivo, human
From the text: It has for long been an unanswered question how a molecular substance escapes from the CSF of the craniospinal compartment to the dural lymphatics and further to extracranial lymph nodes in humans. Experimental studies in animals have indicated a role of lymphatic vessels in dura mater, but this has yet to be shown in human subjects. The present invention addresses removal of molecular substances from the craniospinal compartment in humans. Basis for the various aspects of the invention are novel observations made by the inventors regarding transport of indicator fluids from CSF to lymphatic structures in dura. The inventors have provided novel observations using time series of MRI T1 black-blood sequences after intrathecal administration of the MRI contrast agent gadobutrol. […]
FIG. 23o-s illustrate the determination of signal unit ratios, which is particularly useful when measuring indication signals from MRI. Enrichment of indicator fluid is measured as change in T1-BB signal units. […] The enrichment of CSF tracer is quantified as change in signal units (SU) within the regions of interest that are marked by an open circle. The measured signal units were normalized against the reference to correct for any baseline shift of image greyscale between time points. […]

O=C([O-])CN1CCN(CC(=O)[O-])CCN([C@H](CO)[C@H](O)CO)CCN(CC(=O)[O-])CC1.[Gd+3] (racemic) [gadobutrol]
Time of peak signal change (normalized T1-BB signal units) (CSF nearby parasagittal dura): 24 h | Time of peak signal change (normalized T1-BB signal units) (parasagittal dura): 24 h
